# Test results from US12552806B2, “Androgen receptor regulation by small molecule enantiomers” (University of Southern California, priority 2020, dated 2026).
# Entries after “also recorded” stand apart in the source; their conditions may differ.
# What was measured:
# AR = test: ARE-luciferase assay in cells expressing ARE-luciferase (enantiomer pairs); type: cell-based; settings: 10 μM mixture + 1 nM R1881, 24 h
# From the text: (§1) To test for corresponding transcriptional activation, we performed assays in cells expressing ARE-luciferase. […] Next, we examined gene expression in VCaP cells, a hormone-responsive but independent model of CRPC highly expressing AR.
# (§2) PC3 and VCaP cell lines were obtained from ATCC and cultured as recommended. Generation and culture of PC3 GFP-AR cells were described previously (14). ARE-luciferase cells were generated using Cignal Lenti AR Reporter (Qiagen). Cell lines were authenticated using NIST-approved short tandem repeat DNA profiling and tested negative for mycoplasma. Drug treatments were conducted after overnight culture in phenol red-free media supplemented with charcoal:dextran stripped FBS.
# (§3) Luminometer Assays. For ARE-luciferase, luciferase substrate was added to lysed cells after 24-h treatment. For viability, cells were lysed with CellTiter-Glo 3D Cell Viability Assay (Promega) after 6 d of treatment. Measurements were performed in 96-well plates (Corning) using a GloMax 96 Microplate Luminometer (Promega).
# [1] = Microsome stability assay; type: in vitro ADME, human; settings: for toxic metabolite BMS-501949 detected in LCMS: 8 h incubation, o-fluoro-BMS-501949 for EITM-1707
# Experimental: Microsome stability assays. In vitro metabolism was determined as described previously. Specifically, to measure metabolism of parent compounds, the higher throughput protocol was applied, in which 0.5 mg/ml pooled human liver microsomes (Sigma) were mixed with 1 μM drugs and phosphate buffer (0.1 M, pH 7.4) in 96-well plates. Enzymatic reactions were started by adding 1 mM NADPH (Sigma Aldrich) followed by incubation at 37° C. Fractions were quenched by transfer to ice-cold acetonitrile after the indicated incubation times. Samples were analyzed using liquid chromatography-mass spectrometry (LC/MS-MS). Rates of intrinsic clearance were determined from the amount of the parent compound consumed per min per mg of microsomal protein as described previously. To analyze accumulating metabolites, the basic protocol was used, and microsomes were incubated with 10 μM drugs for 8 h.
# [2] = test system: AR-regulated genes in VCaP cells; test: RT-qPCR array of AR target genes in VCaP cells; type: cell-based; settings: 82 AR target genes, vs NTC and DHT
# Experimental: as §1
# RT-qPCR Array. RNA was isolated using the Illustra RNAspin Mini Kit (GE Healthcare). RNA was transcribed to cDNA using RT2 First Strand Kit (Qiagen). RT-qPCR was performed using Biorad CFX Connect on a RT2 Profiler PCR Array Human Androgen Receptor Signaling Targets (Qiagen).
# LNCaP cells = test: LNCaP cell viability assay (CellTiter-Glo); type: cell-based; settings: 1 and 10 μM drug + 60 pM R1881, 5 days
# Experimental: LNCaP cell viability assay. Cells were seeded into 96-well fibronectin coated (1 ug/cm^2) plates (CellCarrier, PerkinElmer) at a density of 5,000 cells/well. […] Drug-treated cells were lysed with CellTiter-Glo 3D Cell Viability Assay (Promega) and transferred to white 96-well plates (Corning). Luminescence was measured utilizing GloMax 96 Microplate Luminometer (Promega). Analysis was conducted in the R statistical environment (v 3.6.0). […] Visualizations were facilitated by the ggplot2 package (v3.2.1), with standard error (S.E.) shown where appropriate.
# AR T878A = biological target: T1, AR T878A (Homo sapiens, UniProt P10275, T878A); test: cell-based; type: cell-based
# T1 construct: LNCaP cells expressing AR T878A; endogenous in cells; host or cells: LNCaP-luc (LNCaP stably carrying the Cignal Lenti AR Reporter)
# T1 sequence (P10275 1-920 T878A): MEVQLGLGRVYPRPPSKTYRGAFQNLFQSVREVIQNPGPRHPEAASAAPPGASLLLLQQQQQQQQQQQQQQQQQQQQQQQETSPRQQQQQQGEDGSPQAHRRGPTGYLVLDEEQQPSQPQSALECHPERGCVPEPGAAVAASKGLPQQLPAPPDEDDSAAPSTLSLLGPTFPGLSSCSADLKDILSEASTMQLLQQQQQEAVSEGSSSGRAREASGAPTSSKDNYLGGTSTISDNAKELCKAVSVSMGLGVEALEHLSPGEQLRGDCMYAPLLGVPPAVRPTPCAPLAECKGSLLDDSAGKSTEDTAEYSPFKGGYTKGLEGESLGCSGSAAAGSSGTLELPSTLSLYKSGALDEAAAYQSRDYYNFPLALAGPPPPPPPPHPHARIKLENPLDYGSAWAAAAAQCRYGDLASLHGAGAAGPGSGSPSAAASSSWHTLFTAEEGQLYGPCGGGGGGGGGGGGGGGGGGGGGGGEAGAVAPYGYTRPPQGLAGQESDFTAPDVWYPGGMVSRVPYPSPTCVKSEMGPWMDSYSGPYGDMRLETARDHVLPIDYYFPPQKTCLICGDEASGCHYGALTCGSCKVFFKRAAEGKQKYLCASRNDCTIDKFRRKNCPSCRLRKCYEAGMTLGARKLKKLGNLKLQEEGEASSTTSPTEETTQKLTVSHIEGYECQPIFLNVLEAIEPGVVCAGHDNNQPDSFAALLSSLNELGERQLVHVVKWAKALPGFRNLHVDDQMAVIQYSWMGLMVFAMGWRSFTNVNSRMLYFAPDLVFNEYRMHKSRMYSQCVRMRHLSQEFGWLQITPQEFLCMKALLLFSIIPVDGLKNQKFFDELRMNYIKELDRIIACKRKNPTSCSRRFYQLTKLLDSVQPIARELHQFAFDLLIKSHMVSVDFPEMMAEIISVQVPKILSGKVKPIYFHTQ
# From the text: We generated a LNCaP cell line stably expressing luciferase controlled by androgen response elements (ARE-luciferase).
# Cell Culture and Treatments. The LNCaP cell line were obtained from ATCC, cultured in RPMI1640 (Corning) supplemented with 10% heat-inactivated GemCell bovine serum (Gemini Bio-Products) and Penicillin-Streptomycin (Gemini Bio-Products). Cell lines stably expressing ARE-luciferase (LNCaP-luc) was generated using Cignal Lenti AR Reporter (Qiagen) and was continuously cultured with 500 ng/mL Puromycin (Gibco) for positive selection. Cells were maintained at 37° C. in a humidified incubator with 5% carbon dioxide. All cell lines were authenticated using NIST approved short tandem repeat (STR) DNA profiling performed by the University of Arizona Genetics Core and routinely tested negative for mycoplasma.
# Luciferase assay. LNCaP-luc cells were seeded in clear flat bottom white polystyrene 96-well plates (Corning) at a density of 12,000 cells/well. […] Dose-response curves were fit using the delta method and t-distribution (n=1). Compounds are tested up to 10 μM.
# VCaP cells = test: VCaP viability assay (CellTiter-Glo); type: cell-based
# Experimental: as §2, §3
Compound,"(S)-enantiomer contamination that halved the drug effect, ARE-luciferase (AR; 95% CI (2.1%, 2.9%)) [%]","(S)-enantiomer contamination that canceled out the antagonist effect, ARE-luciferase (AR; 95% CI (6.0%, 12.0%)) [%]",toxic metabolite BMS-501949 detected in LCMS ([1]; 10 μM drug),"toxic metabolite BMS-501949 detected in LCMS ([1]; 10 μM drug, listed as (R)-EITM-1707)","active metabolite detected in LCMS ([1]; Unnamed metabolite (predicted active) for EITM compounds, BMS-570511 for BMS-641988, 10 μM drug, 8 h)","half-life at 1 μM ([1]; human, pooled human liver microsomes, pH 7.4, liver microsomes, 1 μM drug, read-out: T½) [min]","microsomal CLint at 1 μM ([1]; human, pooled human liver microsomes, pH 7.4, liver microsomes, read-out: rate of intrinsic clearance) [µL/min/mg]","AR-dependent gene expression, in words [2]","LNCaP proliferation / viable cells, in words (LNCaP cells)","AR agonism / antagonism in LNCaP ARE-luciferase, in words (AR T878A)",EC50 (AR T878A) [nM],Emax (AR T878A; LNCaP) [%],"R1881-induced growth, in words (VCaP cells; 10 μM drug + 1 nM R1881, 6-d treatment)","IC50 (VCaP cells; Homo sapiens, VCaP) [nM]"
"C[C@@]12O[C@@](C)(C[C@@H]1NC(=O)c1cc[nH]n1)[C@@H]1C(=O)N(c3ccc(C#N)c(C(F)(F)F)c3)C(=O)[C@@H]12 [(S)-EITM-1702, N-((3aS,4S,5S,7S,7aR)-2-(4-cyano-3-(trifluoromethyl)phenyl)-4,7-dimethyl-1,3-dioxooctahydro-1H-4,7-epoxyisoindol-5-yl)-1H-pyrazole-3-carboxamide]",2.5,9,–,–,–,–,–,–,–,–,–,–,–,–
"CC(O)c1cc(C(=O)N[C@@H]2C[C@@]3(C)O[C@]2(C)[C@@H]2C(=O)N(c4ccc(C#N)c(C(F)(F)F)c4F)C(=O)[C@@H]23)n[nH]1 (stereo partly drawn) [EITM-1707, N-((3aR,4R,5R,7R,7aS)-2-(4-cyano-2-fluoro-3-(trifluoromethyl)phenyl)-4,7-dimethyl-1,3-dioxooctahydro-1H-4,7-epoxyisoindol-5-yl)-5-(1-hydroxyethyl)-1H-pyrazole carboxamide]",–,–,not detected,no,yes,47.3,10.3,down-regulated AR-dependent gene expression,inhibit LNCaP proliferation; also recorded: inhibited the growth of LNCaP prostate cancer cells,pure antagonists,940,13,visibly suppressed R1881-induced growth,410
